Key:
[1] = reference value used for the calculation; cited from earlier work
Procedure: (§1) In this method, the Fe–cahuitamycin complex was incubated with varying concentrations of EDTA and assessed for Fe distribution using ultraviolet–visible spectroscopy (Methods). The pFe^III for cahuitamycins were calculated against the known stability constants for EDTA (pFe^III=23.42)[24].

A. baumannii ATCC 17978 = experiment: growth of A. baumannii (minimum inhibitory concentration test, OD600 / CFU); type: cell-based, Acinetobacter baumannii
Procedure: Cultures of A. baumannii ATCC 17978 grown overnight were diluted into fresh 10% Mueller Hinton II broth to get 10^5 colony-forming unit per ml by determining optical density at OD600. A volume of 100 μl of diluted cultures were incubated in individual wells of 96-well plate containing 1% of DMSO and various concentrations of cahuitamycins C (3) and D (4). The plate was incubated at 30 °C with shaking at 150 r.p.m. The optical density of each well was monitored every 1 up to 24 h using a microtiter plate reader (Synergy HT, Bio-Tek, Winooski, VT). The number of viable bacterial cells was determined by counting colony-forming unit.

[2] = test system: A. baumannii ATCC 17978 biofilm; experiment: confocal laser scanning microscope 3D imaging of biofilm formation and biomass (SYTO 9 / propidium iodide, COMSTAT); type: cell-based, Acinetobacter baumannii
Procedure: For visualizing bacterial biofilm formation, the same method as described previously was used for biofilm formation but in a glass-bottom 96-well plate (12–556–38, Fisher Scientific International Inc., Franklin, MA)[65]. […] PBS buffer (100 μl) containing 1 μM of SYTO 9 and 10 μM of propidium iodide was added into the well. The plate was incubated for 15 min in dark. Fluorescent images were acquired with an Olympus Fluoview FV1000 confocal microscope (Olympus, Markham, Ontario) with Melles Griot Laser supply and detectors and filter sets for monitoring SYTO 9 and propidium iodide fluorescence. Images were obtained using an oil immersion × 60 objective lens. 3D images were reconstructed using the Amira software package (Amira, San Diego, CA) from a stack of sectional images of biofilm samples. Biofilm biomass and per cent coverage were calculated based on those images using software COMSTAT[65].

[3] = iron affinity (pFe^III) by competition titration with EDTA, UV-visible spectroscopy; type: binding; conditions: 10 mM HEPES, 0.1 M KCl, pH 7.4, 0.1 mM Fe complex, room temperature, at least 24 h, UV-vis, three individual titrations
Procedure: as §1

[4] = test system: A. baumannii ATCC 17978 biofilm; type: cell-based, Acinetobacter baumannii; conditions: static crystal violet assay, OD600
Text: A static biofilm assay was developed from a previously reported method. The biofilm assay measures the adhesion of bacteria to the surface of polystyrene 384-well microtiter plates. Adherent cells are detected by staining with crystal violet and subsequent washing to remove nonadherent planktonic cells. Inhibitors of biofilm formation prevent the bacteria from adhering to the surface of the microtiter plate and reduce the amount of crystal violet retained after washing. Assay quantification was performed by OD600 absorbance measurement of the crystal-violet-stained biofilm. The assay was optimized for plate surface treatment, time, temperature, media, media concentration, crystal violet concentration, wash method, inhibitor sensitivity and culture inoculum preparation.
The A. baumannii test strain (ATCC 17978) was maintained as a frozen stock at −80 °C in 20% glycerol. A volume of 5 ml of Mueller Hinton II cation adjusted media (Becton Dickinson, catalogue no. 212322) was inoculated and grown at 37 °C, 180 r.p.m. shaking for 4–6 h. The culture was then diluted 1:50 and incubated an additional 2 h. The resulting cells were washed four times by centrifugation and resuspension of the pellet in media was performed to remove any metabolites or cell signalling factors. The assay inoculum was prepared by diluting the cells to 0.008 OD600 in 10% Mueller Hinton II cation adjusted media (diluted in 18 Ohm deionized water). The assay plates (Corning, catalogue no. 3,680; 384-well non-treated polystyrene) were prepared by dispensing 20 μl of 10% Mueller Hinton II cation adjusted media into columns 1–22 using a Multidrop Combi dispenser (Thermo Fisher). The NPE samples were added as 0.2 μl of 15 mg ml^−1 stocks in DMSO using a Biomek FX high-density pintool (Beckman Coulter). Column 1 and 2 contained DMSO without NPEs and served as the negative control. The positive control was added to column 23 and 24 as 20 μl of 40 μM Baicalein (Sigma-Aldrich, catalogue no. 11712). […] Quantification was performed by measuring the OD600 absorbance using a Pherastar plate reader (BMG).

[5] = test system: A. baumannii ATCC 17978 biofilm; experiment: flow cell biofilm assay (micrographs); type: cell-based, Acinetobacter baumannii; conditions: for biofilm in flow cells after 6 h of supplementation (in words) / biofilm in flow cells after 24 h of supplementation (in words): 7.5 μg/ml in 10% MHII broth, flow rate 4 ml/h, room temperature
Procedure: Next, we sought to probe the specific stage and extent of inhibition during biofilm formation employing a secondary flow cell assay (Supplementary Fig. 44; Methods).
Biofilms were formed by A. baumannii ATCC 17978 in flow chambers at room temperature. Images were taken at 1, 6 and 24 h (using a × 60 lens) after inoculation. A flow cell biofilm was achieved by using a flow cell chamber (ACCFL0001, Life Science Incorporated, Greensboro, NC). Briefly, overnight cultures of A. baumannii ATCC 17978 grown in MHII broth at 37 °C were diluted 100-fold with fresh MHII broth. A volume of 1 ml of dilution was injected into a flow cell chamber and allowed to settle 1 h for attachment of bacteria, followed by initiation media flow at a flow rate of 4 ml^−1 h^−1. Flow media was 10% MHII broth (control), 10% MHII broth with 7.5 μg ml^−1 of desferoxamine or 10% MHII broth with […] of cahuitamycin A. Micrographs of the biofilm were acquired at 1, 6 and 24 h after the start of flow media using an Olympus IX70 microscope with a × 60 lens. Flow was still running while acquiring the micrograph.

[6] = treated at 240 nM, 22 h incubation, confocal x60, average of five replicates

Molecule	effect on bacterial growth (in words) (A. baumannii ATCC 17978)	total biomass of biofilm ([2]; glass plate treated at 240 nM)	Average thickness of biofilm [2, 6]	Maximum thickness of biofilm [2, 6]	Roughness coefficient of biofilm [2, 6]	total biomass of biofilm [2, 6]	pFe^III [3]	effect on biofilm formation (in words) [4]	biofilm in flow cells after 6 h of supplementation (in words) [5]	biofilm in flow cells after 24 h of supplementation (in words) [5]	other results
O=C(O)CN(CCN(CC(=O)O)CC(=O)O)CC(=O)O [EDTA]	–	–	–	–	–	–	–	–	–	–	pFe^III (known stability constant) [1]: 23.42
Cc1cccc(O)c1C1=N[C@H](C(=O)N[C@@H](CO)C(=O)N[C@H](CCCN(O)C=O)C(=O)N2NCCC[C@@H]2C(=O)NCCC(=O)O)CO1 [compound 3, Cahuitamycin C]	limited effect	0.10	0.20±0.05 μm	1.5±0.33 μm	1.99±0.20	0.10±0.03 μm^3 μm^−2	17.52±0.12	–	–	–	–
Cahuitamycin B [compound 2]	no effects	–	–	–	–	–	20.42±0.09	no effects	–	–	–
Cahuitamycin A [compound 1]	–	0.18	0.21±0.07 μm	1.5±0.54 μm	1.99±0.18	0.18±0.05 μm^3 μm^−2	18.34±0.16	able to inhibit	only a few microcolonies	larger microcolonies and initiation of biofilm formation	–
Cc1ccc(O)c(C2=N[C@H](C(=O)N[C@@H](CO)C(=O)N[C@H](CCCN(O)C=O)C(=O)N[C@H](CCCNO)C(=O)NCCC(=O)O)CO2)c1 [compound 5, Cahuitamycin E]	–	–	–	–	–	–	–	–	–	–	IC50 ([4]; 10% Mueller Hinton II, 30 °C, 20 h, average of three replicates, read-out: IC50, inhibition of biofilm formation): 10.5 µM
CC(=O)N(O)CCCCCNC(=O)CCC(=O)N(O)CCCCCNC(=O)CCC(=O)N(O)CCCCCN [desferrioxamine]	–	–	–	–	–	–	–	–	formation of a robust biofilm	biofilm became thicker	anti-biofilm activity of siderophore control (in words) ([5]; control to probe iron chelation as mode of action, Supplementary Figs 38 and 44): no activity

— article PMC4757757, “Discovery of cahuitamycins as biofilm inhibitors derived from a convergent biosynthetic pathway” (Nature Communications, 2016)
